A word on the LOAEL: it is the lowest tested level that showed an adverse finding. The NOAEL is the highest tested level that showed no adverse finding.

Structures are written as SMILES.

Data set [1] has as its system rat. As to conditions: Sub-acute repeat dose toxicity, sprague dawley, Injection, Intraperitoneal, dose end: 30 day, group: systemic.
In data set [2] the test system is rat. Particulars: Fertility (Segment I), sprague dawley, Injection, Intraperitoneal, dose end: 7 GD.
In another data set the test system is primate. Particulars: Subchronic oral toxicity in nonrodent, macaque, Gavage/Intubation, dose end: 28 day, group: systemic, systemic / clinical chemistry / [other] / [other] + systemic / in life observation / clinical signs / emesis + systemic / in life ….
Data set [3] relates to rat. Particulars: Sub-acute repeat dose toxicity, sprague dawley, Oral, Gavage/Intubation, dose end: 28 day, group: systemic.
For data set [4], the system named is rat. As to conditions: Chronic toxicity, sprague dawley, Oral, Gavage/Intubation, dose end: 26 week, group: systemic.
Data set [5] has as its system rat. As to conditions: Subchronic oral toxicity in rodents, fischer, Feed, dose end: 13 week, group: systemic, systemic / hematology / erythrocyte (rbc) count differential / erythrocyte (rbc) + systemic / hematology / hematocrit (hct) / hematocrit (….
The subject of data set [6] is dog. As to conditions: Sub-acute repeat dose toxicity, beagle, Injection, Intravenous, dose end: 1 month, group: systemic.
Data set [7] deals with rat. Particulars: Subchronic oral toxicity in rodents, other, Feed, dose end: 15 week, group: cholinesterase.
The subject of data set [8] is dog. Particulars: Subchronic oral toxicity in nonrodent, beagle, Feed, dose end: 13 week.
[9] abbreviates: systemic / clinical chemistry / creatinine / creatinine + systemic / in life observation / food consumption / food consumption + systemic / ….
Setting [10] is: systemic / pathology microscopic / ovary / follicle count + systemic / in life observation / body weight / body weight.
The mark [11] stands for this setting: group: maternal, reproductive / reproductive performance / implantations / implantations + reproductive / reproductive performance / preimplantation loss / ….
[12] abbreviates: group: parental, systemic / in life observation / body weight / body weight gain + systemic / organ weight / ovary / absolute + systemic / organ weight / ….
Where [13] appears, read: systemic / clinical chemistry / alanine aminotransferase (alt/sgpt) / alanine aminotransferase (alt/sgpt) + systemic / clinical chemistry / ….
The mark [14] stands for this setting: systemic / hematology / platelet / platelet + systemic / in life observation / clinical signs / salivation.
[15] abbreviates: systemic / clinical chemistry / alanine aminotransferase (alt/sgpt) / alanine aminotransferase (alt/sgpt) + systemic / in life observation….
[16] abbreviates: systemic / clinical chemistry / [other] / [other] + systemic / hematology / erythrocyte (rbc) count differential / erythrocyte (rbc) + ….
[17] abbreviates: systemic / urinalysis / potassium / potassium + systemic / urinalysis / sodium / sodium.
The mark [18] stands for this setting: cholinesterase / cholinesterase / cholinesterase / erythrocyte cholinesterase (che).
The mark [19] stands for this setting: cholinesterase / cholinesterase / cholinesterase / erythrocyte cholinesterase (che) + cholinesterase / cholinesterase / cholinesterase / ….
[20] abbreviates: group: cholinesterase, cholinesterase / cholinesterase / cholinesterase / erythrocyte cholinesterase (che) + cholinesterase / cholinesterase / cholinesterase / ….
[21] abbreviates: group: systemic, systemic / in life observation / clinical signs / [other].

Regarding `C1CC2OC2CC1C1CO1` (centres undefined) [4-Vinyl-1-cyclohexene dioxide], the LOAEL with rat [1] (setting [9]), in the data set on rat [2] (setting [11]) and with rat [2] (setting [12]) was greater than 80 mg/kg/day in each case. For the same compound, the no-observed-adverse-effect level (NOAEL) in the data set on rat [1] (setting [9]), in the data set with rat [2] (setting [11]) and in the data set on rat [2] (setting [12]) was no less than 80 mg/kg/day each time. Also, the LEL in the data set with rat [1] (setting [10]) was 40 mg/kg/day; with rat [2] (setting [11]) it was 80 mg/kg/day; with rat [2] (setting [12]) it was 80 mg/kg/day. The NEL is less than 40 mg/kg/day in the data set on rat [1] (setting [10]), 20 mg/kg/day in the data set with rat [2] (setting [11]) and 20 mg/kg/day with rat [2] (setting [12]).
Regarding `CCCCN1C(=O)[C@@H]([C@H](O)C2CCCCC2)NC(=O)C12CCN(Cc1ccc(Oc3ccc(C(=O)O)cc3)cc1)CC2.Cl` [Aplaviroc hydrochloride], the LEL in the data set on primate came out at 30 mg/kg/day; with rat [3] (setting [14]), 30 mg/kg/day; with rat [4] (setting [15]), 100 mg/kg/day. In addition, the LOAEL with primate was greater than 1000 mg/kg/day; in the data set with rat [3] (setting [13]), greater than 1000 mg/kg/day; in the data set on rat [4] (setting [13]), greater than 750 mg/kg/day. For the same compound, the NEL is less than 30 mg/kg/day with primate, less than 30 mg/kg/day with rat [3] (setting [14]) and less than 100 mg/kg/day in the data set on rat [4] (setting [15]). In addition, the NOAEL is no less than 1000 mg/kg/day in the data set with primate, no less than 1000 mg/kg/day in the data set with rat [3] (setting [13]) and no less than 750 mg/kg/day in the data set with rat [4] (setting [13]).
On to `O=C(O)c1cc(O)c(O)c(O)c1` [Gallic acid], for which, in the data set with rat [5], the LEL is 300 mg/kg/day, the LOAEL worked out at 300 mg/kg/day, the NEL came out at 100 mg/kg/day and the NOAEL amounted to 100 mg/kg/day.
On to `CN(C)c1ccc(O)c2c1C[C@H]1C[C@H]3[C@H](N(C)C)C(=O)C(C(N)=O)=C(O)[C@@]3(O)C(=O)C1=C2O` [Minocycline], for which, in the data set on dog [6] (setting [16]), the LOAEL was greater than 40 mg/kg/day and the NOAEL is no less than 40 mg/kg/day. Moreover, in the data set with dog [6] (setting [17]), the LEL stood at 5 mg/kg/day and the NEL was less than 5 mg/kg/day.
In the data set on rat [7] (setting [18]), `COP(=S)(OC)Oc1ccc(Sc2ccc(OP(=S)(OC)OC)cc2)cc1` [Temephos] came in with an LEL of 0.9 mg/kg/day and an LOAEL of 0.9 mg/kg/day. Further, in the data set with rat [7] (setting [19]), the NEL stood at 0.3 mg/kg/day and the no observed adverse effect level (NOAEL) turned out to be 0.3 mg/kg/day. In the data set on dog [8] (setting [20]), the LEL is 12.5 mg/kg/day, the lowest observed adverse effect level (LOAEL) turned out to be 12.5 mg/kg/day, the NEL is 0.46 mg/kg/day and the NOAEL stood at 0.46 mg/kg/day. In the data set with dog [8] (setting [21]), the LEL was found to be 12.5 mg/kg/day, the lowest-observed-adverse-effect level (LOAEL) was 12.5 mg/kg/day, the NEL stood at 0.46 mg/kg/day and the NOAEL is 0.46 mg/kg/day.

The values are drawn from EPA's ToxRefDB 2.
